Data set [1] in a line: Steady state volume of distribution in rat after administration of 1 mg/kg (iv) and 5 mg/kg (po). It counts as ADME, organism-based. Particulars: in vivo, read-out: Vss.
Data set [2] is described as follows: Maximum plasma concentration of compound in rat after peroral administration of 5 mg/kg. It is filed as ADME, organism-based. Particulars: po. Set-up: dose 5 mg/kg, route oral.
A short description of data set [3]: Total clearance of compound in rat after administration of 1 mg/kg (iv) and 5 mg/kg (po). It is filed as ADME, organism-based. Particulars: in vivo.
The nature of a further data set: in vivo. Particulars: rat, po, 5 mg/kg.

SMILES strings stand for the structures.

On to `Oc1ccc2c(c1)CCN(c1ccccc1)C2c1ccc(OCCN2CCCCC2)cc1` (stereo unspecified), for which, in data set [1], the Vd turned out to be 13.8 L/kg. Besides, in data set [2], the Cmax (in general, the peak of the concentration-time curve) is 31 nM. For the same compound, the clearance in data set [3] came to 51.9 mL/min/kg.

`CN1CCC(c2ccc(C3c4ccc(O)cc4CCN3c3ccc(F)cc3)cc2)CC1` (stereo unspecified): in data set [1], the Vd is 15.8 L/kg. For the same compound, in data set [2], the Cmax was 26.5 nM. Also, in “in vivo”, the bioavailability – broadly, dose-corrected exposure relative to a reference, in per cent – was determined as 64%. In data set [3], this compound gave a clearance of 52.4 mL/min/kg.

`Oc1ccc2c(c1)CCN(c1ccccc1)C2c1ccc(N2CCN3CCCCC3C2)cc1` (stereo unspecified): in data set [1], the Vd is 9.2 L/kg. In data set [2], the concentration peaked (Cmax) at 29.7 nM. In the data set “in vivo”, this compound gave a bioavailability of 49%. Moreover, the clearance in data set [3] came to 28.4 mL/min/kg.

Regarding `CC(C)N1CCN(c2ccc(C3c4ccc(O)cc4CCN3c3cccc(O)c3)cc2)CC1` (stereo unspecified), the Vd in data set [1] was found to be 5 L/kg. The compound also showed a Cmax in data set [2] of 57.2 nM. In addition, the bioavailability in “in vivo” was found to be 44%. Moreover, the clearance in data set [3] was determined as 17.9 mL/min/kg.

`Oc1ccc2c(c1)CC[C@H](c1ccccc1)[C@@H]2c1ccc(OCCN2CCCC2)cc1` [LASOFOXIFENE]: the Vd in data set [1] turned out to be 14.7 L/kg. The compound further had a Cmax in data set [2] of 15.5 nM. In data set [3], this compound showed a clearance of 55.7 mL/min/kg.

As to `O=C(c1ccc(OCCN2CCCCC2)cc1)c1c(-c2ccc(O)cc2)sc2cc(O)ccc12` [RALOXIFENE], the Vd in data set [1] was found to be 17.6 L/kg. The compound further displayed a Cmax in data set [2] of 7.5 nM. For the same compound, the clearance in data set [3] was 158 mL/min/kg.

Values taken from ChEMBL document CHEMBL1141171, “Selective estrogen receptor modulators with conformationally restricted side chains. Synthesis and structure-activity relationship of ERalpha-selective tetrahydroisoquinoline ligands” (J Med Chem, 2005).
